Experimental data from US11766405B2 (MEDAC GESELLSCHAFT FUR KLINISCHE SPEZIALPRAPARATE MBH, priority 2013, dated 2023).
Several values for one entry are separate records, joined by “and”; a condition that tells them apart may be missing. Equal values may be shown once.

Legend:
Format in all cases: physicochemical
[1] = HPLC determination of impurities / mitomycin purity, process 2 (UV 254 nm)
Procedure: Column: YMC-Pack Phenyl 4.6 mm×300 mm, 10 μm […]
Purity determinations according to process 2 were performed at different times. […]

[2] = Mitomycin C content, process 3 (content process Ph Eur 8.0 Mitomycin Monograph); details: for Mitomycin C content: process 3; for Mitomycin content: No. 6: DMSO/DMAA 5.7/94.3 wt.-%, 0.53 mg/g mitomycin C, 8.0 mg/g urea, room temperature, exclusion of light
Procedure: (§1) The solutions were stored at room temperature and with exclusion of light for a period of up to 71.5 hours.
Process 3 corresponds to the content process according to Ph Eur 8.0 Mitomycin Monograph January 2008: 1655. Process 4 corresponds to the impurities process according to Ph Eur 8.0 Mitomycin Monograph January 2008: 1655. […]

[3] = Impurities / purity, process 4 (impurities process Ph Eur 8.0 Mitomycin Monograph); details: for Impurity albomitomycin C / Sum of all impurities: Example 13 urea lyophilisate, process 4; for Mitomycin purity: No. 7: DMSO 100 wt.-%, 1.82 mg/g mitomycin C, 27.3 mg/g urea, room temperature, exclusion of light
Procedure: The composition according to the invention comprises the impurities D1, D2 and albomitomycin C in a total quantity of in particular less than 2.0%, preferably less than 1.5%, particularly preferably less than 1.0%, more preferably less than 0.8% and quite particularly preferably less than 0.6%, wherein the quantity of these impurities is determined according to the impurities process according to Ph Eur 8.0 Mitomycin Monograph January 2008: 1655. In the examples, this determination process is also referred to as process 4.
as §1
Process 3 corresponds to the content process according to Ph Eur 8.0 Mitomycin Monograph January 2008: 1655. Process 4 corresponds to the impurities process according to Ph Eur 8.0 Mitomycin Monograph January 2008: 1655.
(§2) The reconstitution was effected with 20 and 40 ml respectively of isotonic saline solution to an end concentration of 1 mg/ml.

[4] = Reconstitution time of lyophilisates; details: Example 13 urea lyophilisate
Procedure: Moreover, the lyophilisates could be completely reconstituted with isotonic saline solution in very much less than 30 secs.
In addition, the reconstitution time was determined.
as §2

[5] = 20 mg mitomycin C, 40° C. and 75% r.h., t = 3 months
[6] = 20 mg mitomycin C, 40° C. and 75% r.h., t = 6 months
[7] = 40 mg mitomycin C, 40° C. and 75% r.h., t = 3 months
[8] = 40 mg mitomycin C, 40° C. and 75% r.h., t = 6 months

SMILES: CO[C@@]12[C@H](COC(N)=O)C3=C(C(=O)C(C)=C(N)C3=O)N1C[C@@H]1N[C@@H]12 [Mitomycin C, (1aS,8S,8aR,8bS)-6-amino-8-[[(aminocarbonyl)oxy]methyl]-1,1a,2,8,8a,8b-hexahydro-8a-methoxy-5-methyl-azirino[2′,3′:3,4]pyrrolo[1,2-a]indol-4,7-dione]
- Mitomycin purity [1]: 98.86% and 96.77% and 97.04%
- Mitomycin purity ([1]; Example 5 solution: 3.33 mg/g mitomycin C, 5 wt.-% urea, 89/11 wt.-% tert.-butanol/water, 5° C. with exclusion of light, t = 0): 99.23%
- Mitomycin purity ([1]; Example 5 solution: 3.33 mg/g mitomycin C, 5 wt.-% urea, 89/11 wt.-% tert.-butanol/water, 5° C. with exclusion of light, t = 6 h): 99.18%
- Mitomycin purity ([1]; Example 5 solution: 3.33 mg/g mitomycin C, 5 wt.-% urea, 89/11 wt.-% tert.-butanol/water, 5° C. with exclusion of light, t = 24 h): 99.20%
- Mitomycin purity ([1]; Example 5 solution: 3.33 mg/g mitomycin C, 5 wt.-% urea, 89/11 wt.-% tert.-butanol/water, 5° C. with exclusion of light, t = 72 h): 98.80%
- Mitomycin purity ([1]; Example 5 solution: 3.33 mg/g mitomycin C, 5 wt.-% urea, 89/11 wt.-% tert.-butanol/water, 5° C. with exclusion of light, t = 9 d): 98.21%
- Mitomycin purity ([1]; Example 5 solution: 3.33 mg/g mitomycin C, 5 wt.-% urea, 89/11 wt.-% tert.-butanol/water, RT with exclusion of light, t = 0): 99.33%
- Mitomycin purity ([1]; Example 5 solution: 3.33 mg/g mitomycin C, 5 wt.-% urea, 89/11 wt.-% tert.-butanol/water, RT with exclusion of light, t = 6 h): 98.83%
- Mitomycin purity ([1]; Example 5 solution: 3.33 mg/g mitomycin C, 5 wt.-% urea, 89/11 wt.-% tert.-butanol/water, RT with exclusion of light, t = 24 h): 97.80%
- Mitomycin purity ([1]; Example 5 solution: 3.33 mg/g mitomycin C, 5 wt.-% urea, 89/11 wt.-% tert.-butanol/water, RT with exclusion of light, t = 72 h): 96.74%
- Mitomycin purity ([1]; Example 5 solution: 3.33 mg/g mitomycin C, 5 wt.-% urea, 89/11 wt.-% tert.-butanol/water, RT with exclusion of light, t = 9 d): 96.35%
- Mitomycin purity ([1]; Example 5 solution: 3.33 mg/g mitomycin C, 5 wt.-% urea, 89/11 wt.-% tert.-butanol/water, RT without protection against light, t = 0): 99.32%
- Mitomycin purity ([1]; Example 5 solution: 3.33 mg/g mitomycin C, 5 wt.-% urea, 89/11 wt.-% tert.-butanol/water, RT without protection against light, t = 6 h): 98.83%
- Mitomycin purity ([1]; Example 5 solution: 3.33 mg/g mitomycin C, 5 wt.-% urea, 89/11 wt.-% tert.-butanol/water, RT without protection against light, t = 24 h): 97.60%
- Mitomycin purity ([1]; Example 5 solution: 3.33 mg/g mitomycin C, 5 wt.-% urea, 89/11 wt.-% tert.-butanol/water, RT without protection against light, t = 72 h): 96.14%
- Mitomycin purity ([1]; Example 5 solution: 3.33 mg/g mitomycin C, 5 wt.-% urea, 89/11 wt.-% tert.-butanol/water, RT without protection against light, t = 9 d): 95.78%
- Mitomycin C purity ([1]; Example 7 solution: 1.33 mg/g mitomycin C, 20 mg/g urea, 89/11 wt.-% tert.-butanol/water, 5° C. with exclusion of light, t = 27 h): 99.7%
- Mitomycin C purity ([1]; Example 7 solution: 1.33 mg/g mitomycin C, 20 mg/g urea, 89/11 wt.-% tert.-butanol/water, RT with exclusion of light, t = 5 h): 99.7%
- Mitomycin C purity ([1]; Example 7 solution: 1.33 mg/g mitomycin C, 20 mg/g urea, 89/11 wt.-% tert.-butanol/water, RT with exclusion of light, t = 22 h): 99.2%
- Mitomycin C purity ([1]; Example 7 solution: 1.33 mg/g mitomycin C, 20 mg/g urea, 89/11 wt.-% tert.-butanol/water, RT with exclusion of light, t = 27 h): 98.9%
- Mitomycin C purity ([1]; Example 8 solution: 1.67 mg/g mitomycin C, 25 mg/g urea, 89/11 wt.-% tert.-butanol/water, RT with exclusion of light, t = 5 h): 99.6%
- Mitomycin C purity ([1]; Example 8 solution: 1.67 mg/g mitomycin C, 25 mg/g urea, 89/11 wt.-% tert.-butanol/water, RT with exclusion of light, t = 22 h): 99.1%
- Mitomycin C purity ([1]; Example 8 solution: 1.67 mg/g mitomycin C, 25 mg/g urea, 89/11 wt.-% tert.-butanol/water, RT with exclusion of light, t = 27 h): 98.6%
- Mitomycin C content ([2]; Example 13 urea lyophilisate, 20 mg mitomycin C, 40° C. and 75% r.h., t = 3 months): 98.2%
- Mitomycin C content ([2]; Example 13 urea lyophilisate, 20 mg mitomycin C, 40° C. and 75% r.h., t = 6 months): 98.3%
- Mitomycin C content ([2]; Example 13 urea lyophilisate, 20 mg mitomycin C, t = 0): 97.8%
- Mitomycin C content ([2]; Example 13 urea lyophilisate, 40 mg mitomycin C, 40° C. and 75% r.h., t = 3 months): 96.6%
- Mitomycin C content ([2]; Example 13 urea lyophilisate, 40 mg mitomycin C, 40° C. and 75% r.h., t = 6 months): 96.7%
- Mitomycin C content ([2]; Example 13 urea lyophilisate, 40 mg mitomycin C, t = 0): 97.2%
- Mitomycin C content ([2]; Example 14 urea lyophilisate (20 mg) reconstituted with water for injection, end concentration 1 mg/ml): 100.6%
- Mitomycin C content ([2]; Example 14 urea lyophilisate (20 mg) reconstituted with water for injection, end concentration 2 mg/ml): 100.6%
- Mitomycin content ([2]; t = 0): 100%
- Mitomycin content ([2]; t = 6.5 h): 99.93%
- Mitomycin content ([2]; t = 14.5 h): 99.62%
- Mitomycin content ([2]; t = 21 h): 98.84%
- Mitomycin content ([2]; t = 42 h): 99.11%
- Mitomycin content ([2]; t = 71.5 h): 98.58%
- Impurity albomitomycin C [3, 5]: 0.20%
- Sum of all impurities [3, 5]: 0.55%
- Impurity albomitomycin C [3, 6]: 0.26%
- Sum of all impurities [3, 6]: 0.61%
- Impurity albomitomycin C ([3]; 20 mg mitomycin C, t = 0): 0.29%
- Sum of all impurities ([3]; 20 mg mitomycin C, t = 0): 0.29%
- Impurity albomitomycin C [3, 7]: 0.22%
- Sum of all impurities [3, 7]: 0.55
- Impurity albomitomycin C [3, 8]: 0.21%
- Sum of all impurities [3, 8]: 0.58
- Impurity albomitomycin C ([3]; 40 mg mitomycin C, t = 0): 0.32%
- Sum of all impurities ([3]; 40 mg mitomycin C, t = 0): 0.32
- Mitomycin purity ([3]; t = 0): 100%
- Mitomycin purity ([3]; t = 4 h): 99.31%
- Mitomycin purity ([3]; t = 6.5 h): 99.32%
- Mitomycin purity ([3]; t = 13 h): 99.19%
- Mitomycin purity ([3]; t = 20 h): 99.36%
- Mitomycin purity ([3]; t = 26.5 h): 99.32%
- Reconstitution time ([4]; 20 mg mitomycin C, 20 ml isotonic saline to 1 mg/ml, 40° C. and 75% r.h., t = 3 months): 12 s
- Reconstitution time ([4]; 20 mg mitomycin C, 20 ml isotonic saline to 1 mg/ml, 40° C. and 75% r.h., t = 6 months): 17 s
- Reconstitution time ([4]; 20 mg mitomycin C, 20 ml isotonic saline to 1 mg/ml, t = 0): 7 s
- Reconstitution time ([4]; 40 mg mitomycin C, 40 ml isotonic saline to 1 mg/ml, 40° C. and 75% r.h., t = 3 months): 20 s
- Reconstitution time ([4]; 40 mg mitomycin C, 40 ml isotonic saline to 1 mg/ml, 40° C. and 75% r.h., t = 6 months): 18 s
- Reconstitution time ([4]; 40 mg mitomycin C, 40 ml isotonic saline to 1 mg/ml, t = 0): 6 s
